In patent US12102616B2, “Psilocin mucate” (LOBE SCIENCES LTD., priority 2022, dated 2024):
Several values for one entry are separate records, joined by “and”; a condition that tells them apart may be missing. Equal values may be shown once. Entries after “also recorded” stand apart in the source; their conditions may differ. Read-outs that look alike come from different tables or passages of the source.

Tests used:
[1] = Usona's investigator's brochure; cited from earlier work
[2] = cited from earlier work; for AUC / Tmax / Cmax: psilocin
[3] = Stability studies on psilocin mucate capsule over a 12 month period; format: physicochemical; conditions: for Appearance POL-0018, Product / Assay TM-22-0392 (% Label Claim) / Total Impurities / Water Content by cKF TM-22-0012, Mean (2) / Water Content by cKF TM-22-0012, Prep 1 and 2 / Impurities TM-22-0392 (individual impurities): capsules
Method: Additional stability studies were performed on psilocin mutate (also known as psilocin mucic acid salt or conjugate or psilocin galactaric acid salt or conjugate) capsule over a 12 month period.
Appearance was evaluated by viewing of the sample on a watchglass over a black and white background.
Assay conditions for Test/Method TM-022-0392 assessing stability and impurities were as follows: • Mobile phase: MPA: 945 mL water, 5 mL H3PO4, pH to 5.7 with NaOH; MPB: Acetonitrile • Diluent: 80:20 Water:MeOH • Standard: 0.4 mg/mL Psilocin Mucic RS in Diluent • Sample: 0.4 mg/mL Psilocin Mucic API in Diluent • HPLC Conditions are depicted in Table 3.
• System suit: RSD NMT 2.0% (5 injections), Tailing NMT 2.0, Plate count NLT 10000
Calculations were against a bracketing external standard.
Identity of psilocin mucate was verified by ultraviolet (UV) assessment, wherein the UV spectrum of the main peak in the standard matched the UV spectrum of the main peak in the sample and by retention time wherein the retention time ratio was 0.98-1.02.

healthy subjects = assay: Mood assessment, MMSE test and adverse events in the phase one study
Swiss Albino Mice = assay: 28-day oral (gavage) toxicity study with 14-day recovery
[4] = Phase one single-dose pharmacokinetic study of capsules containing psilocin mucic acid conjugate (plasma psilocin)
[5] = 0.224 mg/kg p.o. PY fasted by Hasler
[6] = single oral dose equivalent to 2 mg psilocin
[7] = 2, 10 and 20 mg/kg bw/day oral, 28 days
[8] = females G4R vs G1R, considered not related
[9] = males G4R vs G1R, considered not related
[10] = plasma psilocin, 2 mg p.o. PM fasted

For CN(C)CCc1c[nH]c2cccc(OP(=O)(O)O)c12 [psilocybin], the “lethal dose 50% (LD50)” value [1] is given as 285 mg/kg, the AUC [2, 5] is given as 32.71 μG H/L and the Tmax [2, 5] is given as 1.75 h. For the same compound, the Cmax ([2]; 0.224 mg/kg p.o. PY fasted by Hasler, psilocin dose 0.161 mg/kg p.o.) was 8.2 ng/mL, the AUC ([2]; 1 mg i.v. PY by Hasler) was 4 μG H/L and the Tmax ([2]; 1 mg i.v. PY by Hasler) was 0.0317 h. The Cmax ([2]; 1 mg i.v. PY by Hasler, psilocin dose 0.718 mg, 0.01 mg/kg i.v.) was 12.9 ng/mL, the AUC ([2]; 25 mg p.o. PY fasted by Holze) was 83 μG H/L and the Tmax ([2]; 25 mg p.o. PY fasted by Holze) was 1.9 h. The Cmax ([2]; 25 mg p.o. PY fasted by Holze, psilocin dose 17.95 mg, 0.256 mg/kg) was 17 ng/mL and the “bioavailability, generally reported” value ([2]; varies from paper to paper) was 50-80%.

For CN(C)CCc1c[nH]c2cccc(O)c12.O=C(O)[C@@H](O)[C@H](O)[C@H](O)[C@@H](O)C(=O)O [psilocin mucate], the “stable for (duration of stability)” value [3] was “at least 12 months”, the “Appearance POL-0018, Product” value ([3]; 1 Month) was “Conforms” and the “Assay TM-22-0392 (% Label Claim)” value ([3]; 1 Month) was 98.8%. For the same compound, the “Total Impurities” value ([3]; 1 Month) was 0.05%, the “Water Content by cKF TM-22-0012, Mean (2)” value (from here on “Water Content … (2)”) ([3]; 1 Month) was 0.9 % w/w and the “Water Content by cKF TM-22-0012, Prep 1 and 2” value (shortened to “Water Content … Prep 1 and 2”) ([3]; 1 Month) was 0.9 % w/w and 0.8 % w/w. For the same compound, the “Impurities TM-22-0392 (individual impurities)” value ([3]; 1 Month, impurity at RRT 1.11) was “RRT 1.11/0.05%”, the “Appearance POL-0018, Product” value ([3]; 3 Months) was “Conforms” and the “Assay TM-22-0392 (% Label Claim)” value ([3]; 3 Months) was 101.1%. The “Total Impurities” value ([3]; 3 Months) was under 0.05%, the “Water Content … (2)” value ([3]; 3 Months) was 1.6 % w/w and the “Water Content … Prep 1 and 2” value ([3]; 3 Months) was 2.0 % w/w and 1.1 % w/w. The “Impurities TM-22-0392 (individual impurities)” value ([3]; 3 Months, all impurities) was “All < 0.05%”, the “Appearance POL-0018, Product” value ([3]; 5 Months) was “Conforms” and the “Assay TM-22-0392 (% Label Claim)” value ([3]; 5 Months) was 103.2%. The “Total Impurities” value ([3]; 5 Months) was under 0.05%, the “Water Content … (2)” value ([3]; 5 Months) was 1.3 % w/w and the “Water Content … Prep 1 and 2” value ([3]; 5 Months) was 1.2 % w/w and 1.3 % w/w. The “Impurities TM-22-0392 (individual impurities)” value ([3]; 5 Months, all impurities) was “All < 0.05%”, the “Appearance POL-0018, Product” value ([3]; 6 Months) was “Conforms” and the “Assay TM-22-0392 (% Label Claim)” value ([3]; 6 Months) was 98.8%. The “Total Impurities” value ([3]; 6 Months) was under 0.05%, the “Water Content … (2)” value ([3]; 6 Months) was 1.4 % w/w and the “Water Content … Prep 1 and 2” value ([3]; 6 Months) was 1.4 % w/w. The “Impurities TM-22-0392 (individual impurities)” value ([3]; 6 Months, all impurities) was “All < 0.05%”, the “Appearance POL-0018, Product” value ([3]; 12 Months) was “Conforms” and the “Assay TM-22-0392 (% Label Claim)” value ([3]; 12 Months) was 98.4%. The “Total Impurities” value ([3]; 12 Months) was under 0.05%, the “Water Content … (2)” value ([3]; 12 Months) was 1.3 % w/w and the “Water Content … Prep 1 and 2” value ([3]; 12 Months) was 1.2 % w/w and 1.3 % w/w. The “Impurities TM-22-0392 (individual impurities)” value ([3]; 12 Months, all impurities) was “All < 0.05%”, the “Total Impurities” value ([3]; Initial) was 0.08% and the “Water Content … (2)” value ([3]; Initial) was 1.2 % w/w. For the same compound, the “Impurities TM-22-0392 (individual impurities)” value ([3]; Initial, impurity at RRT 1.12) was “RRT 1.12/0.08%”, the “Assay TM-22-0392 (% Label Claim)” value ([3]; Initial, specification 90.0-110.0%) was 98.8% and the “Water Content … Prep 1 and 2” value ([3]; Initial, specification NMT 10.0%) was 1.1 % w/w and 1.2 % w/w. For the same compound, the “Appearance POL-0018, Product” value ([3]; Initial, specification white to light brown powder partially filling white opaque capsules) was “Conforms”, the “FEELING STATUS” value (healthy subjects; individual subjects 01-10, single oral capsule, 2 mg psilocin equivalent, assessed by psychiatrist) was “Feel little beet happier, better; also recorded: Feel calm, less thoughts, happier; also recorded: Euphoric, better mood, it helps with; also recorded: Euphories, better mood, sleepy, feel; also recorded: Sleepy, better thoughts, less worried; also recorded: Did not feel change in mood but feeling; also recorded: More relaxed, want to drink sweet; also recorded: Better mood, feels hyper sexual; also recorded: Felt high mood, now they feel in good; also recorded: Less anxious, better mood, increase” and the MMSE (healthy subjects; individual subjects 01-10, single oral capsule, 2 mg psilocin equivalent, hallucinogenic substance expected to lower score below 25) was 30 (3×) and 28 (3×) and 27 (2×) and 29 (2×). The “adverse events: dizziness” value (healthy subjects; [6]) was “one subject reported slight and transient dizziness”, the serious adverse effects (healthy subjects; [6]) was “no serious adverse effects were reported” and the “subjects with no hallucinogenic effect” value (healthy subjects; [6]) was 9 of the 10. For the same compound, the Functional observation battery (Swiss Albino Mice; [7]) was “No treatment related effects were observed”, the “Mortality and morbidity check” value (Swiss Albino Mice; [7]) was “No mortality or morbidity was observed at any dose level” and the “effects on general health, body weight, feed consumption, clinical pathology, gross pathology and histopathology” value (Swiss Albino Mice; 28 consecutive days, both sexes) was “no psilocin mucate related effects”. For the same compound, the “Histopathology, overall” value (Swiss Albino Mice; G1 and G4 main group organs/tissues) was “no psilocin mucate related histopathological changes”, the “histopathological lesions (background findings)” value (Swiss Albino Mice; G4 female, considered toxicologically irrelevant) was “single incidence of cortical cyst (unilateral) in kidneys; also recorded: presence of luteal cyst (unilateral) in ovaries” and the AChE (Swiss Albino Mice; G4 male and G3 female animals vs vehicle control, considered non-psilocin mucate related) was “statistically significant increase”. The body weight gain (Swiss Albino Mice; G4 males (20 mg/kg bw/day), day 1-8, vs control, not considered adverse) was “statistically significant decrease”, the “net body weight gain (day 1 to day 43)” value (Swiss Albino Mice; G4 recovery females vs control, not due to treatment) was “statistically significant increase” and the foot splay measurement (Swiss Albino Mice; G4 recovery group females (20 mg/kg bw/day), last day of recovery, vs control, considered random biological variation) was “statistically significant increase”. The Gross pathology (Swiss Albino Mice; all groups, both sexes) was “No gross changes were observed”, the “Clinical chemistry parameters, overall” value (Swiss Albino Mice; both sexes) was “No psilocin mucate related changes were observed” and the “Hematology parameters, overall” value (Swiss Albino Mice; both sexes) was “No psilocin mucate related changes were observed”. For the same compound, the Coagulation parameters (Swiss Albino Mice; both sexes, main and recovery group) was “No statistically significant changes were observed”, the total bile acids (Swiss Albino Mice; females G3 and G4 vs G1, considered not related) was “statistically significant increase” and the “aspartate aminotransferase and inorganic phosphorous” value (Swiss Albino Mice; [8]) was “decrease”. For the same compound, the “creatinine, total protein, albumin and calcium” value (Swiss Albino Mice; [8]) was “increase”, the mean corpuscular hemoglobin (Swiss Albino Mice; [8]) was “increase” and the “relative adrenals and brain weight” value (Swiss Albino Mice; [8]) was “decrease”. For the same compound, the “absolute and relative thymus weight” value (Swiss Albino Mice; females G4 vs G1, considered not related) was “statistically significant increase”, the “white blood cells and platelets” value (Swiss Albino Mice; females G4 vs vehicle control, considered not related) was “statistically significant increase” and the Ophthalmological examination (Swiss Albino Mice; main and recovery group animals) was “No ocular abnormalities were observed”. The relative eosinophil count (Swiss Albino Mice; males G2 and G4 vs vehicle control G1, considered not related) was “statistically significant decrease”, the chloride (Swiss Albino Mice; males G3 vs G1, considered not related) was “decrease” and the “absolute and relative lungs weight and absolute prostate with seminal vesicles and coagulating gland weight” value (Swiss Albino Mice; [9]) was “statistically significant decrease”. For the same compound, the “red blood cells and hemoglobin” value (Swiss Albino Mice; [9]) was “statistically significant increase”, the reticulocytes (Swiss Albino Mice; [9]) was “decrease” and the inorganic phosphorous (Swiss Albino Mice; males G4 vs vehicle control, considered not related) was “statistically significant increase”. The feed consumption (Swiss Albino Mice; males, G4 recovery group, day 29-36, vs control, considered incidental) was “statistically significant increase”, the “Acetyl cholinesterase (AChE) level, overall” value (Swiss Albino Mice; mouse, in vivo) was “No psilocin mucate related changes were observed” and the “NOAEL translated to a dose for an average person of 70 kg” value (Swiss Albino Mice; mouse, in vivo) was 1,400 mg. The “Urinalysis parameters, overall” value (Swiss Albino Mice; mouse, in vivo) was “No psilocin mucate related changes were observed”, the NOAEL (Swiss Albino Mice; oral gavage, 28 consecutive days) was 20 mg/kg bw/day and the “urine pH” value (Swiss Albino Mice; recovery female group (G4R) vs vehicle control recovery group, considered not related) was “statistically significant decrease”. The “Clinical signs and detailed clinical signs observation” value (Swiss Albino Mice; treatment and recovery period) was “No clinical signs of toxicity were observed”, the “food effect upon oral administration” value ([4]; from comparison with published psilocybin studies) was “no food effect” and the “Cmax as compared to an equal amount of psilocin generated by the metabolism of psilocybin” value ([4]; oral) was “higher Cmax”. The “decrease in Tmax as compared to an equivalent formulation of psilocybin” value ([4]; oral) was at least 2 fold, the “delivered concentrations of psilocin compared with intravenous psilocybin” value ([4]; oral formulation) was “equivalent to intravenous doses of psilocybin” and the “patient-to-patient variability as compared to psilocybin treatment” value ([4]; oral formulation) was “decreased patient-to-patient variability”. For the same compound, the AUC [4, 10] was 11.189 μG H/L, the Tmax [4, 10] was 0.75 h and the Cmax ([4]; plasma psilocin, 2 mg p.o. PM fasted, psilocin dose 2 mg, 0.026 mg/kg p.o.) was 3.66 ng/mL. The “time until psilocin is essentially eliminated from circulation” value ([4]; single oral capsule, 2 mg psilocin equivalent) was “less than 12 hours”.
